# From patent publication US20040091985A1, “NAD phosphite oxidoreductase, a novel catalyst from bacteria for regeneration of NAD(P)H” (priority 2002, published 2004)
# Values joined by “and” are separate entries in the source; they are usually repeats but may differ in a detail not shown here. Identical values can stand only once. “Also recorded” adds a separate entry of the source.
# Legend:
# PtxD [1] = target: T1, PtxD (Stutzerimonas stutzeri, UniProt O69054); assay type: biochemical, Pseudomonas stutzeri WM88; parameters: made in house
# T1 sequence (O69054 1-336): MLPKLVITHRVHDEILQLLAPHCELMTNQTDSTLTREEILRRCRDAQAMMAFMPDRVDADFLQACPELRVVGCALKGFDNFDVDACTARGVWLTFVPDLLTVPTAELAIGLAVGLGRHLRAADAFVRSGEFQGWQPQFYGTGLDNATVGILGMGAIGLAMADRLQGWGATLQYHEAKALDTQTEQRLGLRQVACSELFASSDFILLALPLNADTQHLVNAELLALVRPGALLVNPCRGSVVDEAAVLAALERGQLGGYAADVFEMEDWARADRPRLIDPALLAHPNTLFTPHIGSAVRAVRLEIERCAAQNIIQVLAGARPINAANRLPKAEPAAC
# PtxD [2] = target: T1, PtxD; assay type: biochemical, Pseudomonas stutzeri WM88; parameters: made in house; remark: listed apart in the source
# PtxD [3] = target: T1, PtxD; assay type: biochemical, Pseudomonas stutzeri WM88; parameters: made in house; remark: listed apart in the source
# PtxD [4] = target: T1, PtxD; test: Initial rate studies of PtxD in the presence of products (NADH, phosphate) and dead end inhibitor sulfite; assay type: biochemical, Pseudomonas stutzeri WM88; parameters: made in house
# PtxD [5] = target: T1, PtxD; assay type: biochemical, Pseudomonas stutzeri WM88; parameters: made in house; remark: listed apart in the source
# FDH = settings: read-out: Ki, inhibition of FDH; cited from earlier work
# PtxD [6] = target: PtxD (Stutzerimonas stutzeri, UniProt O69054); assay type: biochemical
# PtxD/LLDH = PtxD/LLDH (Stutzerimonas stutzeri, UniProt O69054); assay type: biochemical
# PtxD/HLADH = assay type: biochemical
# PtxD [7] = target: T1, PtxD; test: Initial rate studies of PtxD with NAD and phosphite, kinetic model fitting
molecule,measurement,setting,value
NCCP(=O)(O)O [Aminoethylphosphonate],reduction of potential substrate by PtxD with NADH (reverse direction),PtxD [1],unable to catalyze the reduction
arsenate,reduction of potential substrate by PtxD with NADH (reverse direction),PtxD [1],unable to catalyze the reduction
O=C(O)[C@H](O)CO [D-Glycerate],"inhibitory activity on PtxD, in words",PtxD [2],moderately inhibited
NC(=O)c1ccc[n+]([C@@H]2O[C@H](COP(=O)([O-])OP(=O)(O)OC[C@H]3O[C@@H](n4cnc5c(N)ncnc54)[C@H](OP(=O)(O)O)[C@@H]3O)[C@@H](O)[C@H]2O)c1 [NADP],"inhibitory activity on PtxD, in words",PtxD [2],weak enzyme inhibitors
same,"Activity, cofactors",PtxD [3],3.4% and 7.1% and 0.4% and 1.1%
same,ability to substitute for NAD,PtxD [3],able to substitute for NAD; also recorded: can substitute for NAD
Nc1ncnc2c1ncn2[C@@H]1O[C@H](COP(=O)(O)O)[C@@H](O)[C@H]1O [AMP],"inhibitory activity on PtxD, in words",PtxD [2],does not inhibit
CC(C)CC(O)C(=O)O (racemic) [DL-Hydroxyisocaproate],"inhibitory activity on PtxD, in words",PtxD [2],moderately inhibited
O=C(O)C(O)CO (stereo not shown) [glycerate],reduction of potential substrate by PtxD with NADH (reverse direction),PtxD [1],unable to catalyze the reduction
O=S(O)O [Sulfite],Ki,PtxD [4]; Kii,4.97 µM and 1.15 µM
same,Ki,PtxD [4]; Kis with respect to NAD,10.8 ± 0.1 µM
same,Ki,PtxD [4]; Kis with respect to phosphite,16.1 ± 0.1 µM
same,"inhibitory activity on PtxD, in words",PtxD [2],strong inhibitor
Arsenite,"inhibitory activity on PtxD, in words",PtxD [2],moderately inhibited
[Cl-].[Na+] [NaCl],activity left,PtxD [5],37%
Nc1ncnc2c1ncn2[C@@H]1O[C@H](COP(=O)(O)OP(=O)(O)OP(=O)(O)O)[C@@H](O)[C@H]1O [ATP],"inhibitory activity on PtxD, in words",PtxD [2],weak enzyme inhibitors
"Nc1ncnc2c1ncn2[C@@H]1O[C@H](COP(=O)(O)OP(=O)(O)OC[C@H]2OC(O)[C@H](O)[C@@H]2O)[C@@H](O)[C@H]1O (stereo partly shown) [ADPR, ADP-ribose]","inhibitory activity on PtxD, in words",PtxD [2],weak enzyme inhibitors
NADH,type of inhibition of PtxD,PtxD [4],competitive inhibitor
O=NO [Nitrite],"inhibitory activity on PtxD, in words",PtxD [2],moderately inhibited
O=C(O)C(=O)CO [hydroxypyruvate],reduction of substrate by PtxD with NADH,PtxD [1],0.14 units/mg
O=C(O)O [bicarbonate],reduction of potential substrate by PtxD with NADH (reverse direction),PtxD [1],unable to catalyze the reduction
NC(=O)c1ccc[n+]([C@@H]2O[C@H](COP(=O)([O-])OP(=O)(O)OC[C@H]3O[C@@H](n4cnc5c(N)ncnc54)[C@H](O)[C@@H]3O)[C@@H](O)[C@H]2O)c1 [NAD],Ki,"PtxD [4]; Ki, inhibition of PtxD",223 µM
same,Ki,FDH,150 µM
same,total turnover numbers of NAD^+,PtxD [6],up to 2000
same,TN (NAD^+),PtxD/LLDH,12
same,TTN (NAD^+),PtxD/LLDH,2000
same,"Activity, cofactors",PtxD [3],100.00%
same,TN (NAD^+),PtxD/HLADH,123
same,TTN (NAD^+),PtxD/HLADH,2000
O=C(O)CN(CCOCCOCCN(CC(=O)O)CC(=O)O)CC(=O)O [EGTA],effect on enzyme activity,PtxD [5],no effect
O=C(O)CN(CCN(CC(=O)O)CC(=O)O)CC(=O)O [EDTA],effect on enzyme activity,PtxD [5],no effect
Phosphite,Km,PtxD [7],53.1 µM and ~50 µM
same,"Activity, substrates",PtxD [3],100.00%
Nc1ncnc2c1ncn2[C@@H]1O[C@H](COP(=O)(O)OP(=O)(O)O)[C@@H](O)[C@H]1O [ADP],"inhibitory activity on PtxD, in words",PtxD [2],weak enzyme inhibitors
